Measurements from PubChem BioAssay (NCI).
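Cultured in 96-well plates, cells were exposed to test compound for 48 hours across five concentrations. Definition used: TGI = concentration required for complete inhibition of growth.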

Tests used:
Experiment in all cases: NCI tumour cell line growth inhibition, 48 h
HOP-18 NSCLC = system: HOP-18 NSCLC
SNB-78 CNS = system: SNB-78 CNS
OVCAR-8 ovarian = system: OVCAR-8 ovarian
SN12K1 renal = system: SN12K1 renal
NCI-H522 lung = system: NCI-H522 lung
K-562 leukemia = system: K-562 leukemia
HCT-15 colon = system: HCT-15 colon
SN12C renal = system: SN12C renal
OVCAR-4 ovarian = system: OVCAR-4 ovarian
CCRF-CEM leukemia = system: CCRF-CEM leukemia
IGROV1 ovarian = system: IGROV1 ovarian
M19-MEL melanoma = system: M19-MEL melanoma
HOP-62 NSCLC = system: HOP-62 NSCLC
SF-268 CNS = system: SF-268 CNS
SF-295 CNS = system: SF-295 CNS
CAKI-1 renal = system: CAKI-1 renal
SNB-19 CNS = system: SNB-19 CNS
XF 498 CNS = system: XF 498 CNS
SK-MEL-5 melanoma = system: SK-MEL-5 melanoma
A498 renal = system: A498 renal
SK-MEL-2 melanoma = system: SK-MEL-2 melanoma
SF-539 CNS = system: SF-539 CNS
UACC-62 melanoma = system: UACC-62 melanoma
HOP-92 NSCLC = system: HOP-92 NSCLC
HCC-2998 colon = system: HCC-2998 colon
KM20L2 colon = system: KM20L2 colon
U251 CNS = system: U251 CNS
COLO 205 colon = system: COLO 205 colon
KM12 colon = system: KM12 colon
P388/ADR leukemia = system: P388/ADR leukemia
HL-60(TB) leukemia = system: HL-60(TB) leukemia
DLD-1 colon = system: DLD-1 colon
SK-MEL-28 melanoma = system: SK-MEL-28 melanoma
NCI/ADR-RES ovarian = system: NCI/ADR-RES ovarian
UO-31 renal = system: UO-31 renal
SK-OV-3 ovarian = system: SK-OV-3 ovarian
MCF7 breast = system: MCF7 breast
RPMI-8226 leukemia = system: RPMI-8226 leukemia
DMS 273 small cell lung = system: DMS 273 small cell lung
NCI-H226 lung = system: NCI-H226 lung
SW-620 colon = system: SW-620 colon
MOLT-4 leukemia = system: MOLT-4 leukemia
MALME-3M melanoma = system: MALME-3M melanoma
OVCAR-5 ovarian = system: OVCAR-5 ovarian
HCT-116 colon = system: HCT-116 colon
SNB-75 CNS = system: SNB-75 CNS
HT29 colon = system: HT29 colon
UACC-257 melanoma = system: UACC-257 melanoma
NCI-H23 lung = system: NCI-H23 lung
A549 NSCLC = system: A549 NSCLC
NCI-H460 lung = system: NCI-H460 lung
RXF 393 renal = system: RXF 393 renal
OVCAR-3 ovarian = system: OVCAR-3 ovarian

CN(C)CCNC(=O)c1ccc(Cl)c2ccc(-c3ccccc3)nc12 showed a TGI (HOP-18 NSCLC) of 13.5 µM, a TGI (SNB-78 CNS) of 20.5 µM and a TGI (OVCAR-8 ovarian) of 12.3 µM. The TGI (SN12K1 renal) was 9.69 µM, the TGI (NCI-H522 lung) was 14.9 µM and the TGI (K-562 leukemia) was 6.15 µM. The TGI (HCT-15 colon) was 14.5 µM, the TGI (SN12C renal) was 15.5 µM and the TGI (OVCAR-4 ovarian) was 14 µM. For the same molecule, the TGI (CCRF-CEM leukemia) was 10.8 µM, the TGI (IGROV1 ovarian) was 14.1 µM and the TGI (M19-MEL melanoma) was 13.4 µM. For the same molecule, the TGI (HOP-62 NSCLC) was 11 µM, the TGI (SF-268 CNS) was 17.5 µM and the TGI (SF-295 CNS) was 16.5 µM. It also gave a TGI (CAKI-1 renal) of 12.9 µM, a TGI (SNB-19 CNS) of 17.1 µM and a TGI (XF 498 CNS) of 11 µM. The TGI (SK-MEL-5 melanoma) was 4.82 µM, the TGI (A498 renal) was 12.8 µM and the TGI (SK-MEL-2 melanoma) was 20.1 µM. It also gave a TGI (SF-539 CNS) of 12.8 µM, a TGI (UACC-62 melanoma) of 7.83 µM and a TGI (HOP-92 NSCLC) of 7.52 µM. The TGI (HCC-2998 colon) was 16.6 µM, the TGI (KM20L2 colon) was 12.9 µM and the TGI (U251 CNS) was 12.7 µM. The TGI (COLO 205 colon) was 4.85 µM, the TGI (KM12 colon) was 24.2 µM and the TGI (P388/ADR leukemia) was 5.17 µM. It also gave a TGI (HL-60(TB) leukemia) of 7.65 µM, a TGI (DLD-1 colon) of 12.7 µM and a TGI (SK-MEL-28 melanoma) of 14.6 µM. It also gave a TGI (NCI/ADR-RES ovarian) of 12.1 µM, a TGI (UO-31 renal) of 5.21 µM and a TGI (SK-OV-3 ovarian) of 17.4 µM. The TGI (MCF7 breast) was 16.8 µM, the TGI (RPMI-8226 leukemia) was 7.83 µM and the TGI (DMS 273 small cell lung) was 10.9 µM. The TGI (NCI-H226 lung) was 7.3 µM, the TGI (SW-620 colon) was 14.2 µM and the TGI (MOLT-4 leukemia) was 5.72 µM. It also gave a TGI (MALME-3M melanoma) of 10.6 µM, a TGI (OVCAR-5 ovarian) of 13.3 µM and a TGI (HCT-116 colon) of 11.3 µM. The TGI (SNB-75 CNS) was 12.3 µM, the TGI (HT29 colon) was 11.9 µM and the TGI (UACC-257 melanoma) was 14.2 µM. It also gave a TGI (NCI-H23 lung) of 16.6 µM, a TGI (A549 NSCLC) of 13 µM and a TGI (NCI-H460 lung) of 8.04 µM. For the same molecule, the TGI (RXF 393 renal) was 19 µM and the TGI (OVCAR-3 ovarian) was 19.4 µM.
